Measured values taken from PubChem BioAssay (NCI).
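Each compound was tested at five concentrations against cells in 96-well plates for 48 hours. TGI marks complete inhibition of growth.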

Tests used:
Test in all cases: NCI-60 cell line screen, 48 h
NCI-H522 lung = system: NCI-H522 lung
TK-10 renal = system: TK-10 renal
RPMI-8226 leukemia = system: RPMI-8226 leukemia
MALME-3M melanoma = system: MALME-3M melanoma
HL-60(TB) leukemia = system: HL-60(TB) leukemia
UACC-257 melanoma = system: UACC-257 melanoma
SK-MEL-2 melanoma = system: SK-MEL-2 melanoma
A549 NSCLC = system: A549 NSCLC
CAKI-1 renal = system: CAKI-1 renal
DLD-1 colon = system: DLD-1 colon
XF 498 CNS = system: XF 498 CNS
HOP-92 NSCLC = system: HOP-92 NSCLC
HOP-18 NSCLC = system: HOP-18 NSCLC
KM12 colon = system: KM12 colon
SK-OV-3 ovarian = system: SK-OV-3 ovarian
SK-MEL-5 melanoma = system: SK-MEL-5 melanoma
M14 melanoma = system: M14 melanoma
LXFL 529 NSCLC = system: LXFL 529 NSCLC
EKVX NSCLC = system: EKVX NSCLC
SK-MEL-28 melanoma = system: SK-MEL-28 melanoma
LOX IMVI melanoma = system: LOX IMVI melanoma
SR leukemia = system: SR leukemia
A498 renal = system: A498 renal
NCI-H226 lung = system: NCI-H226 lung
SF-268 CNS = system: SF-268 CNS
UO-31 renal = system: UO-31 renal
786-0 renal = system: 786-0 renal
HOP-62 NSCLC = system: HOP-62 NSCLC
SN12C renal = system: SN12C renal
HCT-116 colon = system: HCT-116 colon
RXF 393 renal = system: RXF 393 renal
MOLT-4 leukemia = system: MOLT-4 leukemia
SNB-78 CNS = system: SNB-78 CNS
SNB-75 CNS = system: SNB-75 CNS
K-562 leukemia = system: K-562 leukemia
OVCAR-4 ovarian = system: OVCAR-4 ovarian
NCI-H23 lung = system: NCI-H23 lung
M19-MEL melanoma = system: M19-MEL melanoma
HCC-2998 colon = system: HCC-2998 colon
NCI-H460 lung = system: NCI-H460 lung
HT29 colon = system: HT29 colon
HCT-15 colon = system: HCT-15 colon
OVCAR-8 ovarian = system: OVCAR-8 ovarian
UACC-62 melanoma = system: UACC-62 melanoma
SF-295 CNS = system: SF-295 CNS
OVCAR-5 ovarian = system: OVCAR-5 ovarian
COLO 205 colon = system: COLO 205 colon
SNB-19 CNS = system: SNB-19 CNS
DMS 273 small cell lung = system: DMS 273 small cell lung
SF-539 CNS = system: SF-539 CNS
KM20L2 colon = system: KM20L2 colon
U251 CNS = system: U251 CNS
CCRF-CEM leukemia = system: CCRF-CEM leukemia
SW-620 colon = system: SW-620 colon
IGROV1 ovarian = system: IGROV1 ovarian
ACHN renal = system: ACHN renal
RXF-631 renal = system: RXF-631 renal
DMS 114 small cell lung = system: DMS 114 small cell lung
OVCAR-3 ovarian = system: OVCAR-3 ovarian

In the case of `C[C@]12CCc3nonc3C1CC[C@@H]1C2CC[C@]2(C)C(=O)/C(=N\O)CC12` (some centres undefined), the TGI (NCI-H522 lung) is reported as 32 µM, the TGI (TK-10 renal) is reported as > 100 µM and the TGI (RPMI-8226 leukemia) is reported as > 100 µM. The TGI (MALME-3M melanoma) was > 100 µM, the TGI (HL-60(TB) leukemia) was 3.69 µM and the TGI (UACC-257 melanoma) was > 100 µM. For the same compound, the TGI (SK-MEL-2 melanoma) was > 100 µM, the TGI (A549 NSCLC) was > 100 µM and the TGI (CAKI-1 renal) was > 100 µM. For the same compound, the TGI (DLD-1 colon) was > 100 µM, the TGI (XF 498 CNS) was > 100 µM and the TGI (HOP-92 NSCLC) was > 100 µM. For the same compound, the TGI (HOP-18 NSCLC) was > 100 µM, the TGI (KM12 colon) was > 100 µM and the TGI (SK-OV-3 ovarian) was > 100 µM. The TGI (SK-MEL-5 melanoma) was > 100 µM, the TGI (M14 melanoma) was > 100 µM and the TGI (LXFL 529 NSCLC) was > 100 µM. The TGI (EKVX NSCLC) was > 100 µM, the TGI (SK-MEL-28 melanoma) was > 100 µM and the TGI (LOX IMVI melanoma) was > 100 µM. For the same compound, the TGI (SR leukemia) was > 100 µM, the TGI (A498 renal) was > 100 µM and the TGI (NCI-H226 lung) was > 100 µM. For the same compound, the TGI (SF-268 CNS) was > 100 µM, the TGI (UO-31 renal) was > 100 µM and the TGI (786-0 renal) was > 100 µM. The TGI (HOP-62 NSCLC) was > 100 µM, the TGI (SN12C renal) was > 100 µM and the TGI (HCT-116 colon) was > 100 µM. The TGI (RXF 393 renal) was > 100 µM, the TGI (MOLT-4 leukemia) was > 100 µM and the TGI (SNB-78 CNS) was > 100 µM. The TGI (SNB-75 CNS) was > 100 µM, the TGI (K-562 leukemia) was > 100 µM and the TGI (OVCAR-4 ovarian) was > 100 µM. For the same compound, the TGI (NCI-H23 lung) was > 100 µM, the TGI (M19-MEL melanoma) was > 100 µM and the TGI (HCC-2998 colon) was > 100 µM. For the same compound, the TGI (NCI-H460 lung) was > 100 µM, the TGI (HT29 colon) was > 100 µM and the TGI (HCT-15 colon) was > 100 µM. For the same compound, the TGI (OVCAR-8 ovarian) was > 100 µM, the TGI (UACC-62 melanoma) was > 100 µM and the TGI (SF-295 CNS) was > 100 µM. For the same compound, the TGI (OVCAR-5 ovarian) was > 100 µM, the TGI (COLO 205 colon) was > 100 µM and the TGI (SNB-19 CNS) was > 100 µM. The TGI (DMS 273 small cell lung) was > 100 µM, the TGI (SF-539 CNS) was > 100 µM and the TGI (KM20L2 colon) was > 100 µM. For the same compound, the TGI (U251 CNS) was > 100 µM, the TGI (CCRF-CEM leukemia) was > 100 µM and the TGI (SW-620 colon) was > 100 µM. For the same compound, the TGI (IGROV1 ovarian) was > 100 µM, the TGI (ACHN renal) was > 100 µM and the TGI (RXF-631 renal) was > 100 µM. For the same compound, the TGI (DMS 114 small cell lung) was > 100 µM and the TGI (OVCAR-3 ovarian) was > 100 µM.
For `COC(=O)C(C(=O)C(=O)Nc1ccc(Br)cc1)c1nc2ccc(Cl)cc2[nH]c1=O` (centres undefined), the TGI (NCI-H522 lung) was > 100 µM, the TGI (TK-10 renal) was > 100 µM and the TGI (RPMI-8226 leukemia) was > 100 µM. The TGI (MALME-3M melanoma) was > 100 µM, the TGI (HL-60(TB) leukemia) was > 100 µM and the TGI (UACC-257 melanoma) was > 100 µM. The TGI (SK-MEL-2 melanoma) was > 100 µM, the TGI (A549 NSCLC) was > 100 µM and the TGI (CAKI-1 renal) was > 100 µM. The TGI (DLD-1 colon) was > 100 µM, the TGI (XF 498 CNS) was > 100 µM and the TGI (HOP-92 NSCLC) was > 100 µM. For the same compound, the TGI (HOP-18 NSCLC) was > 100 µM, the TGI (KM12 colon) was > 100 µM and the TGI (SK-OV-3 ovarian) was > 100 µM. For the same compound, the TGI (SK-MEL-5 melanoma) was > 100 µM, the TGI (M14 melanoma) was > 100 µM and the TGI (LXFL 529 NSCLC) was > 100 µM. The TGI (EKVX NSCLC) was > 100 µM, the TGI (SK-MEL-28 melanoma) was > 100 µM and the TGI (LOX IMVI melanoma) was > 100 µM. The TGI (SR leukemia) was > 100 µM, the TGI (A498 renal) was > 100 µM and the TGI (NCI-H226 lung) was > 100 µM. The TGI (SF-268 CNS) was > 100 µM, the TGI (UO-31 renal) was > 100 µM and the TGI (786-0 renal) was > 100 µM. For the same compound, the TGI (HOP-62 NSCLC) was > 100 µM, the TGI (SN12C renal) was > 100 µM and the TGI (HCT-116 colon) was > 100 µM. The TGI (RXF 393 renal) was > 100 µM, the TGI (MOLT-4 leukemia) was > 100 µM and the TGI (SNB-78 CNS) was > 100 µM. For the same compound, the TGI (SNB-75 CNS) was > 100 µM, the TGI (K-562 leukemia) was > 100 µM and the TGI (OVCAR-4 ovarian) was > 71.3 µM. The TGI (NCI-H23 lung) was > 100 µM, the TGI (M19-MEL melanoma) was > 100 µM and the TGI (HCC-2998 colon) was > 100 µM. For the same compound, the TGI (NCI-H460 lung) was > 100 µM, the TGI (HT29 colon) was > 72.2 µM and the TGI (HCT-15 colon) was > 55.9 µM. The TGI (OVCAR-8 ovarian) was > 100 µM, the TGI (UACC-62 melanoma) was > 100 µM and the TGI (SF-295 CNS) was > 100 µM. For the same compound, the TGI (OVCAR-5 ovarian) was > 100 µM, the TGI (COLO 205 colon) was > 61.3 µM and the TGI (SNB-19 CNS) was > 100 µM. The TGI (DMS 273 small cell lung) was > 100 µM, the TGI (SF-539 CNS) was > 100 µM and the TGI (KM20L2 colon) was > 100 µM. The TGI (U251 CNS) was > 100 µM, the TGI (CCRF-CEM leukemia) was > 100 µM and the TGI (SW-620 colon) was > 41.4 µM. For the same compound, the TGI (IGROV1 ovarian) was > 100 µM, the TGI (ACHN renal) was > 100 µM and the TGI (RXF-631 renal) was > 100 µM. The TGI (DMS 114 small cell lung) was > 100 µM and the TGI (OVCAR-3 ovarian) was > 100 µM.
In the case of `NC(=O)c1ncn2c1NCC1OC2C(O)C1O` (centres undefined), the TGI (NCI-H522 lung) is reported as > 100 µM, the TGI (TK-10 renal) is reported as > 100 µM and the TGI (MALME-3M melanoma) is reported as > 100 µM. The TGI (HL-60(TB) leukemia) was > 100 µM, the TGI (UACC-257 melanoma) was > 100 µM and the TGI (SK-MEL-2 melanoma) was > 100 µM. For the same compound, the TGI (A549 NSCLC) was > 100 µM, the TGI (CAKI-1 renal) was > 100 µM and the TGI (DLD-1 colon) was > 100 µM. For the same compound, the TGI (XF 498 CNS) was > 100 µM, the TGI (HOP-92 NSCLC) was > 100 µM and the TGI (HOP-18 NSCLC) was > 100 µM. The TGI (KM12 colon) was > 100 µM, the TGI (SK-OV-3 ovarian) was > 100 µM and the TGI (SK-MEL-5 melanoma) was > 100 µM. For the same compound, the TGI (M14 melanoma) was > 100 µM, the TGI (LXFL 529 NSCLC) was > 100 µM and the TGI (EKVX NSCLC) was > 100 µM. For the same compound, the TGI (SK-MEL-28 melanoma) was > 100 µM, the TGI (LOX IMVI melanoma) was > 100 µM and the TGI (SR leukemia) was > 100 µM. The TGI (A498 renal) was > 100 µM, the TGI (NCI-H226 lung) was > 100 µM and the TGI (SF-268 CNS) was > 100 µM. For the same compound, the TGI (UO-31 renal) was > 100 µM, the TGI (786-0 renal) was > 100 µM and the TGI (HOP-62 NSCLC) was > 100 µM. For the same compound, the TGI (SN12C renal) was > 100 µM, the TGI (HCT-116 colon) was > 100 µM and the TGI (RXF 393 renal) was > 100 µM. For the same compound, the TGI (MOLT-4 leukemia) was > 100 µM, the TGI (SNB-78 CNS) was > 100 µM and the TGI (SNB-75 CNS) was > 100 µM. For the same compound, the TGI (K-562 leukemia) was > 100 µM, the TGI (OVCAR-4 ovarian) was > 100 µM and the TGI (NCI-H23 lung) was > 100 µM. For the same compound, the TGI (M19-MEL melanoma) was > 100 µM, the TGI (HCC-2998 colon) was > 100 µM and the TGI (HT29 colon) was > 100 µM. The TGI (OVCAR-8 ovarian) was > 100 µM, the TGI (UACC-62 melanoma) was > 100 µM and the TGI (SF-295 CNS) was > 100 µM. The TGI (OVCAR-5 ovarian) was > 100 µM, the TGI (COLO 205 colon) was > 100 µM and the TGI (SNB-19 CNS) was > 100 µM. For the same compound, the TGI (DMS 273 small cell lung) was > 100 µM, the TGI (SF-539 CNS) was > 100 µM and the TGI (KM20L2 colon) was > 100 µM. The TGI (U251 CNS) was > 100 µM, the TGI (CCRF-CEM leukemia) was > 100 µM and the TGI (SW-620 colon) was > 100 µM. For the same compound, the TGI (IGROV1 ovarian) was > 100 µM, the TGI (ACHN renal) was > 100 µM and the TGI (RXF-631 renal) was > 100 µM. For the same compound, the TGI (DMS 114 small cell lung) was > 100 µM and the TGI (OVCAR-3 ovarian) was > 100 µM.
